In paper PMC12562854, “Resin Glycosides with α-Glucosidase and Protein Tyrosine Phosphatase 1B Inhibitory Activities from the Seeds of Cuscuta japonica” (Biomolecules, 2025):
Read-outs that look alike come from different tables or passages of the source.

Tests used:
PTP1B [1] = molecular target: T1, PTP1B (Homo sapiens, UniProt P18031); assay: PTP1B inhibitory assay (pNPP hydrolysis); type: biochemical; conditions: for IC50: mean ± SD of three independent experiments; for inhibition at 100 µM: percent inhibition at a concentration of 100 μM
T1 construct: purchased MedChemExpress LLC
T1 sequence (P18031 1-435): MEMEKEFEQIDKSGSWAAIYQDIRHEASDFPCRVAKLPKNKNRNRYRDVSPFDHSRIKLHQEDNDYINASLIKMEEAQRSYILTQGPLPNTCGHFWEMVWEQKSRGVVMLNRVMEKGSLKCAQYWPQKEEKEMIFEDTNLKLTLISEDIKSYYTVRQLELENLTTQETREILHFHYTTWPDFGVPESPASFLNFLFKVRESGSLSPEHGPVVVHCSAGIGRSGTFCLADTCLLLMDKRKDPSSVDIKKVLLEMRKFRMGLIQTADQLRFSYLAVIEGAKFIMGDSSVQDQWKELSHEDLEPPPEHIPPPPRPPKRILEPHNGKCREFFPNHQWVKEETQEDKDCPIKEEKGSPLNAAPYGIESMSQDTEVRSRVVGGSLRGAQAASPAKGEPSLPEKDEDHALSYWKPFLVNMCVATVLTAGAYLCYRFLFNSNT
Method: The inhibitory activity against PTP1B was assessed via the p-nitrophenyl phosphate (pNPP) hydrolysis assay. The reaction buffer consisted of 50 mM citrate buffer (pH 6.0) supplemented with 0.1 M NaCl, 2 mM EDTA, and 1 mM DTT. Recombinant PTP1B enzyme (MedChemExpress LLC, Monmouth Junction, NJ, USA) was used at a concentration of 5 μg/mL, with 10 mM pNPP serving as the substrate. The enzymatic reaction was terminated by the addition of 1M NaOH.

α-glucosidase [2] = molecular target: T2, α-glucosidase (Saccharomyces cerevisiae, UniProt P53341); assay: α-Glucosidase inhibitory assay (pNPG hydrolysis); type: biochemical; conditions: for inhibition at 100 µM: read-out: α-Glucosidase Inhibition (%)
T2 construct: purchased Sigma-Aldrich Inc
Method: In brief, 140 μL of phosphate buffer (0.2 M, pH 6.8) was added to the 96-well microplate wells, followed by the addition of 10 μL α-glucosidase solution (0.5 U/mL, Sigma-Aldrich Inc., Saint Louis, MO, USA) and 2 μL of the test compound. The control wells contained 2 μL of DMSO in place of the test sample, while the enzyme solution was replaced by an additional 10 μL of phosphate buffer in the background wells. After preincubation at 37 °C for 10 min, 48 μL of 2 mM p-nitrophenyl-α-D-glucopyranoside (pNPG) was introduced into each well. The reaction mixtures were incubated for 30 min before being terminated by adding 50 μL of 0.1 M Na2CO3 solution. Absorbance was measured at 405 nm using a microplate reader. […] All assays were performed in triplicate and repeated three times independently.

α-glucosidase [3] = molecular target: T2, α-glucosidase; assay: Enzyme reversibility and kinetics analysis, α-glucosidase; type: biochemical
Method: (§1) Reversibility was assessed by plotting the enzyme reaction velocity (v) against varying enzyme concentrations in the presence of different inhibitor concentrations. Lineweaver–Burk plots (1/v vs. 1/[S]) were constructed by measuring reaction velocities at multiple substrate concentrations with varying amounts of inhibitors. From these plots, inhibition type, as well as Michaelis–Menten constants Km and Vmax, were determined. Additionally, slopes and Y-intercepts of these reciprocal plots were also plotted against inhibitor concentrations to further characterize the inhibition constants Ki and Kis, respectively.

PTP1B [4] = molecular target: T1, PTP1B; assay: Enzyme reversibility and kinetics analysis, PTP1B; type: biochemical
Method: as §1

α-glucosidase [5] = conditions: cited from earlier work; for α-Glucosidase inhibition (in words): affinity-directed fractionation-mass spectrometry
[6] = read-out: α-Glucosidase IC50, mean ± SD of three independent experiments
[7] = secondary plot of Y-intercept from Lineweaver–Burk data
[8] = velocity vs enzyme concentration at different inhibitor levels

T2 sequence (P53341 whole entry): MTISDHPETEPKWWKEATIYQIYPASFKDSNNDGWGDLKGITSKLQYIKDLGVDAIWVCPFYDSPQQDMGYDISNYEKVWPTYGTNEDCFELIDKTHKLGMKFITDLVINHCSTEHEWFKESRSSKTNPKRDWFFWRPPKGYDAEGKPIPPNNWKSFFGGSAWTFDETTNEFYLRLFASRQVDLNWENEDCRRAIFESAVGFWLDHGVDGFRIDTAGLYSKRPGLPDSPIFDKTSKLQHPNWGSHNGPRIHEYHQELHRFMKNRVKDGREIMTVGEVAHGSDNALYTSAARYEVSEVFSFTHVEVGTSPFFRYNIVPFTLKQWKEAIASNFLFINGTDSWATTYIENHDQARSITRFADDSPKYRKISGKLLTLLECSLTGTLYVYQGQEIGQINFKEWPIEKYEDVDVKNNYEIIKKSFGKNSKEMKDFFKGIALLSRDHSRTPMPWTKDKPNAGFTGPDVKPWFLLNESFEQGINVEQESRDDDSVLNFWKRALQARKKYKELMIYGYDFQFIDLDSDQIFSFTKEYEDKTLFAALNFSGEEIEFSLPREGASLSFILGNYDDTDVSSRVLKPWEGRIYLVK

Row | Compound | IC50 (PTP1B [1]) [µM] | inhibition at 100 µM (PTP1B [1]) [%] | IC50 (α-glucosidase [2]; [6]) [µM] | inhibition at 100 µM (α-glucosidase [2]) [%] | also measured
1 | CCCC[C@@H](CCCCCCCCCC(=O)OC)O[C@@H]1O[C@H](CO)[C@@H](O)[C@H](O)[C@H]1O[C@@H]1O[C@@H](C)[C@H](O[C@@H]2O[C@@H](C)[C@H](O[C@@H]3O[C@@H](C)[C@H](O)[C@@H](O[C@@H]4O[C@H](CO)[C@@H](O)[C@H](O)[C@H]4O)[C@H]3O)[C@@H](O)[C@H]2O)[C@@H](O)[C@H]1O [Compound 1, Cusponin I] | > 100 | 5.41 ± 0.67 | 38.2 ± 3.36 | 68.7 ± 4.11 | –
2 | CCCCC[C@@H](CCCCCCCCCC(=O)OC)O[C@@H]1O[C@H](CO)[C@@H](O)[C@H](O)[C@H]1O[C@@H]1O[C@@H](C)[C@H](O[C@@H]2O[C@@H](C)[C@H](O[C@@H]3O[C@@H](C)[C@H](O)[C@@H](O[C@@H]4O[C@H](CO)[C@@H](O)[C@H](O)[C@H]4O)[C@H]3O)[C@@H](O)[C@H]2O)[C@@H](O)[C@H]1O [Compound 2, Cusponin II] | > 100 | 3.26 ± 0.16 | – | 83 ± 0.84 | Inhibition type, α-glucosidase (α-glucosidase [3]; Lineweaver–Burk plots): uncompetitive; Vmax of α-glucosidase in presence of inhibitor (α-glucosidase [3]; at 16 μM compound 2 (0.115 at 0 μM)): 0.021; Inhibition constant Kis (enzyme–substrate complex), α-glucosidase (α-glucosidase [3]; [7]): 3.02 µM; Reversibility of α-glucosidase inhibition (α-glucosidase [3]; [8]): reversible; IC50 (α-glucosidase [2]): 8.02 ± 2.9 µM
3 | CCCC[C@@H](CCCCCCCCCC(=O)OC)O[C@@H]1O[C@H](CO)[C@@H](O)[C@H](O)[C@H]1O[C@@H]1O[C@@H](C)[C@H](O[C@@H]2O[C@@H](C)[C@H](O[C@@H]3O[C@@H](C)[C@H](O)[C@@H](O)[C@H]3O)[C@@H](O[C@@H]3O[C@H](CO)[C@@H](O)[C@H](O)[C@H]3O)[C@H]2O)[C@@H](O)[C@H]1O [Compound 3, Cusponin III] | 14.2 ± 1.29 | 89.2 ± 2.55 | 64.9 ± 2.97 | 67.1 ± 1.18 | Inhibition type, PTP1B (PTP1B [4]; Lineweaver–Burk plot): mixed-type; Vmax of PTP1B in presence of inhibitor (PTP1B [4]; at 25 μM compound 3 (0.104 at 0 μM)): 0.075; Inhibition constant Kis (enzyme–substrate complex), PTP1B (PTP1B [4]; [7]): 64.24 µM; Ki (PTP1B [4]; secondary plot of slope from Lineweaver–Burk data, read-out: Inhibition constant Ki (free enzyme), PTP1B): 24.8 µM; Reversibility of PTP1B inhibition (PTP1B [4]; [8]): reversible
4 | CCCC[C@@H](CCCCCCCCCC(=O)OC)O[C@@H]1O[C@H](C)[C@H](O)[C@H](O)[C@H]1O[C@@H]1O[C@@H](C)[C@H](O[C@@H]2O[C@@H](C)[C@H](O[C@@H]3O[C@@H](C)[C@H](O)[C@@H](O)[C@H]3O)[C@@H](O[C@@H]3O[C@H](CO)[C@@H](O)[C@H](O)[C@H]3O)[C@H]2O)[C@@H](O)[C@H]1O [Compound 4, Cusponin IV] | > 100 | 15 ± 2.45 | 55.5 ± 6.89 | 66.5 ± 3.65 | –
5 | CCCC[C@@H](CCCCCCCCCC(=O)OC)O[C@@H]1O[C@H](C)[C@H](O)[C@H](O)[C@H]1O[C@@H]1O[C@H](CO)[C@@H](O)[C@H](O[C@@H]2O[C@H](CO)[C@@H](O)[C@H](O)[C@H]2O)[C@H]1O[C@@H]1O[C@@H](C)[C@H](OC(=O)[C@H](C)[C@@H](C)OC(=O)[C@H](C)[C@@H](C)O)[C@@H](O)[C@H]1O [Compound 5, Cusponin V] | 62.3 ± 8.61 | 52.7 ± 4.6 | > 100 | 51.8 ± 1.77 | –
6 | CCCC[C@@H](CCCCCCCCCC(=O)OC)O[C@@H]1O[C@H](C)[C@H](O)[C@H](O)[C@H]1O[C@@H]1O[C@H](CO)[C@@H](O)[C@H](O[C@@H]2O[C@H](CO)[C@@H](O)[C@H](O)[C@H]2O)[C@H]1O[C@@H]1O[C@@H](C)[C@H](OC(=O)[C@H](C)[C@@H](C)O)[C@@H](O)[C@H]1O [Compound 6, Cusponin VI] | > 100 | 29.9 ± 4.5 | 71.4 ± 3.23 | 60.5 ± 5.42 | –
7 | CCCC[C@@H](CCCCCCCCCC(=O)OC)O[C@@H]1O[C@H](C)[C@H](O)[C@H](O)[C@H]1O[C@@H]1O[C@H](CO)[C@@H](O)[C@H](O[C@@H]2O[C@H](CO)[C@@H](O)[C@H](O)[C@H]2O)[C@H]1O[C@@H]1O[C@@H](C)[C@H](O)[C@@H](O)[C@H]1O [Compound 7, Cusponin VII] | > 100 | 15.9 ± 2.92 | > 100 | 49.4 ± 1.71 | –
8 | CCCCC[C@@H](CCCCCCCCCC(=O)OC)O[C@@H]1O[C@H](CO)[C@@H](O)[C@H](O)[C@H]1O[C@@H]1O[C@@H](C)[C@H](O[C@@H]2O[C@@H](C)[C@H](O[C@@H]3O[C@@H](C)[C@H](O)[C@@H](O)[C@H]3O)[C@@H](O[C@@H]3O[C@H](CO)[C@@H](O)[C@H](O)[C@H]3O)[C@H]2O)[C@@H](O)[C@H]1O [Compound 8, operculinic acid B methyl ester] | > 100 | 7.78 ± 1.98 | 65.1 ± 9.41 | 64.6 ± 3.12 | –
9 | C[C@H]1[C@H](C)CC[C@]2(C(=O)O)CC[C@]3(C)C(=CC[C@@H]4[C@@]5(C)CC[C@H](O)C(C)(C)[C@@H]5CC[C@]43C)[C@H]12 [Ursolic acid, ursolic acid, reference compound] | – | 90.4 ± 5.23 | – | – | –
10 | CCC[C@H]1CCCCCCCCCC(=O)O[C@H]2[C@H](O[C@H]3[C@H](O)[C@@H](C)O[C@@H](O[C@H]4[C@H](O1)O[C@H](C)[C@@H](O)[C@@H]4O)[C@@H]3O[C@@H]1O[C@@H](C)[C@H](OC(C)=O)[C@@H](O)[C@H]1O)O[C@H](C)[C@@H](O)[C@@H]2OC(=O)[C@H](C)[C@@H](C)O [albinoside VII] | – | – | – | – | α-Glucosidase inhibition (in words) (α-glucosidase [5]): potent α-glucosidase inhibitors
11 | CCC[C@H]1CCCCCCCCCC(=O)O[C@H]2[C@H](OC[C@H]3O[C@@H](O[C@H]4[C@H](O1)O[C@H](C)[C@@H](O)[C@@H]4O)[C@H](O[C@@H]1O[C@@H](C)[C@H](OC(C)=O)[C@@H](O)[C@H]1O)[C@@H](O)[C@@H]3O)O[C@H](C)[C@@H](O)[C@@H]2OC(=O)[C@H](C)[C@@H](C)O [albinoside VI] | – | – | – | – | α-Glucosidase inhibition (in words) (α-glucosidase [5]): potent α-glucosidase inhibitors
12 | operculinic acid A | – | – | – | – | IC50 (α-glucosidase [5]; from Ipomoea biflora): 78.3 µM
